Laboratory results: ChEMBL document CHEMBL1155737, “Antillatoxin B, a neurotoxic lipopeptide from the marine cyanobacterium Lyngbya majuscula” (J Nat Prod, 2001)

Assays:
[1] = Ichthyotoxicity in Carassius auratus; format: organism-based; details: in vivo
[2] = Activation of voltage-sensitive sodium channel in mouse neuro2a cells; format: cell-based; details: N2a

SMILES | LC50 [1] [µM] | EC50 [2] [µM]
C=C1CC(=O)N[C@@H](C)C(=O)N(C)[C@@H](CCc2ccccc2)C(=O)NCC(=O)O[C@@H](/C(C)=C/C(C)=C/C(C)(C)C)[C@@H]1C [ANTILLATOXIN B] | 1 | 1.77
C=C1CC(=O)N[C@@H](C)C(=O)N(C)[C@@H](C(C)C)C(=O)NCC(=O)O[C@@H](/C(C)=C/C(C)=C/C(C)(C)C)[C@@H]1C [ANTILLATOXIN] | – | 0.18
